The results in this text go back to patent US9527885B2, “Hepatitis C virus inhibitors” (BRISTOL-MYERS SQUIBB COMPANY, priority 2011, dated 2016).

The subject of assay [1] is HCV genotype 1b (Con1) replicon in HUH-7 cells. Description: HCV replicon luciferase reporter assay, genotype 1b. The format is cell-based. To be noted: Hepatitis C virus, 72 h, 3 days incubation, read-out: LE_1b (EC50, range). A digest of the protocol: (§1)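 Twenty-point, threefold compound titrations (0.5% DMSO) were incubated 3 days at 37 °C with 3.0×10^3 HUH-7 cells/well in 4% FCS. The cells stably carried luciferase replicons: genotype 1b Con1 (S1179I) or 1a H77 (NS3 P1496L, NS5A S2204I). Renilla signal was read after 2 h with 7.5 μM EnduRen, and EC50 was taken from a four-parameter logistic fit. Cytotoxicity (CC50) was measured by Cell Titer-Blue, 8 h.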
A general note: A replicon is a self-replicating genome or part of one, used to study replication in cells.

For assay [2], the system named is HCV genotype 1a (H77 strain) replicon in HUH-7 cells. Nature of the assay: HCV replicon luciferase reporter assay, genotype 1a. The format is cell-based. To be noted: Hepatitis C virus, Huh-7, 72 h, 3 days incubation, read-out: LE_1a (EC50, range). A digest of the protocol:
as §1

The mark [3] stands for this setting: HCV genotype 1b replicon luciferase, class symbols.
[4] abbreviates: HCV genotype 1a replicon luciferase, class symbols.
Where [5] appears, read: HCV genotype 1b replicon luciferase reporter, range class.
Setting [6] is: HCV genotype 1a replicon luciferase reporter, range class.

Like-named read-outs stand apart in the source and are kept apart here.

Usually EC50 stands for the concentration needed to bring the measured effect to its halfway point.

In the case of `C[C@@H]1CC/C=C\[C@@H]2C[C@@]2(C(=O)NS(=O)(=O)C2(C)CC2)NC(=O)[C@@H]2C[C@@H](Oc3nccc4c(N5CCOCC5)cccc34)CN2C(=O)[C@@H](NC(=O)OC(C)(C)C(F)(F)F)[C@H](C)C1` [Compound 5124, 1,1,1-trifluoro-2-methylpropan-2-yl ((2R,6S,7R,9R,13aS,14aR,16aS,Z)-7,9-dimethyl-14a-(((1-methylcyclopropyl)sulfonyl)carbamoyl)-2-((5-morpholinoisoquinolin-1-yl)oxy)-5,16-dioxo-1,2,3,5,6,7,8,9,10,11,13a,14,14a,15,16,16a-hexadecahydrocyclopropa[e]pyrrolo[1,2-a][1,4]diazacyclopentadecin-6-yl)carbamate], the EC50 in assay [1] (setting [3]) and in assay [2] (setting [4]) was less than 5.46 nM in each case.
`[2H]C([2H])([2H])Oc1cnc(O[C@@H]2C[C@H]3C(=O)N[C@]4(C(=O)NS(=O)(=O)C5(C)CC5)C[C@H]4CCCC[C@H](C)C[C@@H](C)[C@H](NC(=O)OC(C)(C)C(F)(F)F)C(=O)N3C2)c2ccccc12` [Compound 5110, 1,1,1-trifluoro-2-methylpropan-2-yl ((2R,6S,7R,9S,13aR,14aR,16aS)-7,9-dimethyl-14a-(((1-methylcyclopropyl)sulfonyl)carbamoyl)-5,16-dioxo-2-((4-(trideuteromethoxy)isoquinolin-1-yl)oxy)octadecahydrocyclopropa[e]pyrrolo[1,2-a][1,4]diazacyclopentadecin-6-yl)carbamate]: the EC50 was less than 5.46 nM in assay [1] (setting [3]) and 4.82 to 103 nM in assay [2] (setting [4]).
Turning to `COc1ccc2c(O[C@@H]3C[C@H]4C(=O)N[C@]5(C(=O)NS(=O)(=O)C6(CF)CC6)C[C@H]5/C=C\CC[C@@H](C)C[C@@H](C)[C@H](NC(=O)OC(C)(C)C(C)(F)F)C(=O)N4C3)nc(N(C)C)cc2c1` [Compound 3125, 3,3-difluoro-2-methylbutan-2-yl ((2R,6S,7R,9R,13aS,14aR,16aS,Z)-2-((3-(dimethylamino)-6-methoxyisoquinolin-1-yl)oxy)-14a-(((1-(fluoromethyl)cyclopropyl)sulfonyl)carbamoyl)-7,9-dimethyl-5,16-dioxo-1,2,3,5,6,7,8,9,10,11,13a,14,14a,15,16,16a-hexadecahydrocyclopropa[e]pyrrolo[1,2-a][1,4]diazacyclopentadecin-6-yl)carbamate], the EC50 in assay [1] (setting [5]) was less than 5.46 nM; in assay [2] (setting [6]), 4.82 to 103 nM.
Take `CCOc1ccc2c(O[C@@H]3C[C@H]4C(=O)N[C@]5(C(=O)NS(=O)(=O)C6CC6)C[C@H]5/C=C\CC[C@@H](C)C[C@@H](C)[C@H](NC(=O)O[C@@H]5C[C@@H]6C[C@@H]6C5)C(=O)N4C3)nccc2c1` [Compound 5132, (1R,3r,5S)-bicyclo[3.1.0]hexan-3-yl ((2R,6S,7R,9R,13aS,14aR,16aS,Z)-14a-((cyclopropylsulfonyl)carbamoyl)-2-((6-ethoxyisoquinolin-1-yl)oxy)-7,9-dimethyl-5,16-dioxo-1,2,3,5,6,7,8,9,10,11,13a,14,14a,15,16,16a-hexadecahydrocyclopropa[e]pyrrolo[1,2-a][1,4]diazacyclopentadecin-6-yl)carbamate]: the EC50 in assay [1] (setting [3]) and in assay [2] (setting [4]) was less than 5.46 nM throughout.
On to `C[C@@H]1CC/C=C\[C@@H]2C[C@@]2(C(=O)NS(=O)(=O)C2CC2)NC(=O)[C@@H]2C[C@@H](Oc3nc4ccccc4c4ccccc34)CN2C(=O)[C@@H](NC(=O)OC(C)(C)C(F)(F)F)[C@H](C)C1` [Compound 5185, 1,1,1-trifluoro-2-methylpropan-2-yl ((2R,6S,7R,9R,13aS,14aR,16aS,Z)-14a-((cyclopropylsulfonyl)carbamoyl)-7,9-dimethyl-5,16-dioxo-2-(phenanthridin-6-yloxy)-1,2,3,5,6,7,8,9,10,11,13a,14,14a,15,16,16a-hexadecahydrocyclopropa[e]pyrrolo[1,2-a][1,4]diazacyclopentadecin-6-yl)carbamate], for which the EC50 in assay [1] (HCV genotype 1b replicon luciferase, range class) was less than 5.46 nM; in assay [2] (HCV genotype 1a replicon luciferase, range class), less than 5.46 nM.
For the molecule `CCOc1ccc2c(O[C@@H]3C[C@H]4C(=O)N[C@]5(C(=O)NS(=O)(=O)C6(C)CC6)C[C@H]5/C=C\CC[C@@H](C)C[C@@H](C)[C@H](NC(=O)O[C@@H]5C[C@@H]6C[C@@H]6C5)C(=O)N4C3)nccc2c1` [Compound 5138, (1R,3r,5S)-bicyclo[3.1.0]hexan-3-yl ((2R,6S,7R,9R,13 aS,14aR,16aS,Z)-2-((6-ethoxyisoquinolin-1-yl)oxy)-7,9-dimethyl-14a-(((1-methylcyclopropyl)sulfonyl)carbamoyl)-5,16-dioxo-1,2,3,5,6,7,8,9,10,11,13a,14,14a,15,16,16a-hexadecahydrocyclopropa[e]pyrrolo[1,2-a][1,4]diazacyclopentadecin-6-yl)carbamate], the EC50 in assay [1] (setting [3]) and in assay [2] (setting [4]) was less than 5.46 nM throughout.
Regarding `COc1ccc2c(O[C@@H]3C[C@H]4C(=O)N[C@]5(C(=O)NS(=O)(=O)C6(C)CC6)C[C@H]5/C=C\CC[C@@H](C)C[C@@H](C)[C@H](NC(=O)OC(C)(C)C(F)(F)F)C(=O)N4C3)nc(N(C)C)cc2c1` [Compound 3117, 1,1,1-trifluoro-2-methylpropan-2-yl ((2R,6S,7R,9R,13aS,14aR,16aS,Z)-2-((3-(dimethylamino)-6-methoxyisoquinolin-1-yl)oxy)-7,9-dimethyl-14a-(((1-methylcyclopropyl)sulfonyl)carbamoyl)-5,16-dioxo-1,2,3,5,6,7,8,9,10,11,13a,14,14a,15,16,16a-hexadecahydrocyclopropa[e]pyrrolo[1,2-a][1,4]diazacyclopentadecin-6-yl)carbamate], the EC50 in assay [1] (setting [5]) and in assay [2] (setting [6]) was less than 5.46 nM throughout.
